Data on one substance can be found in patent US6395782B1, “Method of increasing longevity and preventing body weight wasting in autoimmune disease by using conjugated linoleic acid” (Wisconsin Alumni Research Foundation, priority 2001, dated 2002).

The subject of experiment [1] is SLE patients and rodent models. The experiment can be described thus: Comparison of CLA with n-3 fatty acids in SLE patients and rodent models. The class given is in vivo. The conditions noted are these: CLA vs n-3 fatty acids. An excerpt:
Effects similar to those observed by the applicants can be observed using n-3 fatty acids in SLE patients and rodent models (Fernandes, G., et al., J. Immunol. 152:5979 (1994)). […] To have similar effects of 0.5% diet CLA, as described below, n-3 fatty acids would have to make up about 10% of the diet.

Experiment [2] relates to NZB/W F1 mice. As to conditions: dietary CLA fed from weaning onward; cited from earlier work.
Experiment [3] deals with NZB/W F1 mice. The experiment can be described thus: CLA diet given after onset of proteinuria in NZB/W F1 mice (SLE model): survival and body weight. The class given is in vivo. As to conditions: p<0.05. The text has this: Materials. Conjugated linoleic acid (Natural Lipids Inc, Hovdebygda, Norway) contained 90% CLA (CLA-90) with the following C18:2 isomer distribution: 43.5% t10,c12, 41.9% c9,t11 and t9,c11, 1.5% t9,t11 and t10,t12, 0.9% c9,c11, 0.9% c10,c12. Other fatty acids in CLA-90 were 5.6% oleate, 1.4% palmitate, 0.5% linoleate, 0.4% stearate, and 3.4% unidentified compounds. All other chemicals and reagents were purchased from Sigma Chemical Co. (St. Louis, Mo.) unless specified.
Diet. Semi-purified powdered diet (TD94060, 99% basal mix, Harlan-Teklad, Madison, Wis.) was mixed with 0.5% oil (either CLA or corn oil) and 0.5% sucrose by weight, such that the final diet contained either 5.5% corn oil (control group) or 5% corn oil plus 0.5% CLA (CLA group) (Park Y et al., Lipids 32, 853 (1997)). […]
Animals. […] Once proteinuria was detected the mice were assigned either the control diet or 0.5% conjugated linoleic acid for the remainder of their life. […]
Feed Intake and Body Weight. Weekly body weight and survival of the mice were recorded from the beginning of the experiment to the time of death.
Urine Collection and Proteinuria Assay. […] Plates were mildly shaken for 5 min and the color reactions were read at 600 nm with a microtiter plate reader (Autoreader EL310, Bio-tek Instrument). […]
Statistical Analysis. […] Positive proteinuria ratio was analyzed by Fisher's exact test using a SAS computer program version 5.

In the case of Conjugated linoleic acid [CLA], the “effectiveness relative to n-3 fatty acids in comparable methods” value in experiment [1] was “about 20 times”. Besides, in the experiment with NZB/W F1 mice [2], the anti-DNA antibody production entry is reported as “does not significantly affect”, the “body weight loss vs control mice” value was “lost less body weight”, the onset of proteinuria entry was “accelerates the onset of proteinuria” and the “survival from the onset of proteinuria vs control mice” value is “lived longer”. The “total lifespan vs control animals” value in the experiment with NZB/W F1 mice [2] was “did not differ”. Moreover, the “prolonging of life span (lived longer than control diet)” value with NZB/W F1 mice [3] (0.5% CLA in diet from detection of proteinuria (1 mg protein/ml urine) until death, vs 5.5% corn oil control diet, female NZB/W F1 mice) was determined as 55%. For the same substance, the “reduction of body weight wasting (control lost more body weight than CLA diet)” value with NZB/W F1 mice [3] (0.5% CLA in diet from detection of proteinuria until death, vs control diet, NZB/W F1 mice) was determined as 35%.
